Measurements reported in ChEMBL document CHEMBL1141144, “Discovery and structure-activity relationship of 3-aryl-5-aryl-1,2,4-oxadiazoles as a new series of apoptosis inducers and potential anticancer agents” (J Med Chem, 2005).

How the values were obtained:
Format in all cases: functional
[1] = system: DLD-1; experiment: Growth inhibitory activity against DLD-1 cells done for 48 h at 37 degree C with compound; conditions: Homo sapiens, DLD-1, 48 h
[2] = system: NCI-H1299; experiment: Growth inhibitory activity against H1299 cells done for 48 h at 37 degree C with compound; conditions: Homo sapiens, NCI-H1299, 48 h
[3] = system: T47D; experiment: Growth inhibitory activity aganist T47D cells done for 48 hr at 37 degree C with compound; conditions: Homo sapiens
[4] = species: Mus musculus; experiment: Inhibition of tumor growth in mice with MX-1 tumor after treatment in combination with paclitaxel

Row | GI50 [1] [nM] | GI50 [2] [nM] | GI50 [3] [nM] | SMILES | Inhibition [4] [%]
1 | 580 | > 10000 | 570 | Clc1ccc(-c2noc(-c3sccc3Br)n2)cc1 | –
2 | 130 | > 10000 | 320 | FC(F)(F)c1ccc(-c2noc(-c3occc3Br)n2)cc1 | –
3 | 850 | > 10000 | 2200 | Cc1ccc(-c2noc(-c3sccc3Cl)n2)cc1 | –
4 | 510 | > 10000 | 120 | Clc1ccc(-c2noc(-c3occc3Br)n2)cc1 | –
5 | 350 | > 10000 | 170 | FC(F)(F)c1ccc(-c2noc(-c3occc3Cl)n2)cc1 | –
6 | 770 | > 10000 | 220 | FC(F)(F)c1ccc(-c2noc(-c3sccc3Cl)n2)cc1 | –
7 | 600 | > 10000 | 13000 | Clc1ccc(-c2noc(-c3occc3Cl)n2)nc1 | –
8 | 510 | > 10000 | 120 | Clc1ccc(-c2noc(-c3occc3Cl)n2)cc1 | 83
9 | 930 | > 10000 | 520 | COc1ccc(-c2noc(-c3sccc3Cl)n2)cc1 | –
10 | 400 | > 10000 | 190 | Clc1ccc(-c2noc(-c3sccc3Cl)n2)cc1 | –
11 | 800 | > 10000 | 200 | Clc1ccc(-c2noc(-c3sccc3Cl)n2)nc1 | –
12 | 430 | > 10000 | 380 | Clc1ccc(-c2noc(-c3occc3Br)n2)nc1 | –
13 | 930 | > 10000 | 350 | FC(F)(F)c1ccc(-c2noc(-c3sccc3Cl)n2)nc1 | –
